In US11091478B2 (Fochon Pharmaceuticals, Ltd., priority 2017, dated 2021) one finds IC50 data, which are given here for ten molecules.

One experiment concerns RS4;11 cells. The experiment can be described thus: Cell proliferation assay (MTS), RS4;11 cells, 72 h. Particulars: Homo sapiens, RS4-11, 72 h. It is filed as cell-based. An outline of the steps:
(§1)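 Treatment lasts 72 h for RS4;11 and 120 h for DOHH2 cells seeded at 5000 per well in serum-containing RPMI-1640. A 2 h MTS step, halted with 10% SDS, precedes dual-wavelength absorbance reading and IC50 fitting.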

For a further experiment, the system named is DOHH2 cells. The experiment can be described thus: Cell proliferation assay (MTS), DOHH2 cells, 120 h. It counts as cell-based. Particulars: Homo sapiens, DOHH-2, 120 h. An outline of the steps: as §1

For the molecule `CC1(C)CCC(CN2CCN(c3ccc(C(=O)NS(=O)(=O)c4cc5c(c([N+](=O)[O-])c4)N[C@H](CN4CCCCC4)CO5)c(Oc4cnc5[nH]ccc5c4)c3)CC2)=C(c2ccc(Cl)cc2)C1` [Example 2-84, (R)-2-((1H-pyrrolo[2,3-b]pyridin-5-yl)oxy)-4-(4-((4′-chloro-5,5-dimethyl-3,4,5,6-tetra-hydro-[1,1′-biphenyl]-2-yl)methyl)piperazin-1-yl)-N-((5-nitro-3-(piperidin-1-ylmethyl)-3,4-dihydro-2H-benzo[b][1,4]oxazin-7-yl)sulfonyl)benzamide], the values for the 50% inhibitory concentration (IC50) with RS4;11 cells and in the experiment on DOHH2 cells were 26 nM and 82 nM, respectively.

Consider `CC1(C)CCC(CN2CCN(c3ccc(C(=O)NS(=O)(=O)c4cc5c(c([N+](=O)[O-])c4)N[C@@H](CN4C[C@@H]6C[C@H]4CO6)CO5)c(Oc4cnc5[nH]ccc5c4)c3)CC2)=C(c2ccc(Cl)cc2)C1` [Example 2-87, 2-((1H-pyrrolo[2,3-b]pyridin-5-yl)oxy)-N-(((S)-3-(((1S,4S)-2-oxa-5-azabicyclo[2.2.1]heptan-5-yl)methyl)-5-nitro-3,4-dihydro-2H-benzo[b][1,4]oxazin-7-yl)sulfonyl)-4-(4-((4′-chloro-5,5-dimethyl-3,4,5,6-tetrahydro-[1,1′-biphenyl]-2-yl)methyl)piperazin-1-yl) benzamide], for which the IC50 (commonly the concentration at which inhibition is half-maximal) amounted to 7 nM with RS4;11 cells and 26 nM in the experiment with DOHH2 cells.

For `CC1(C)CCC(CN2CCN(c3ccc(C(=O)NS(=O)(=O)c4cc5c(c([N+](=O)[O-])c4)N[C@@H](CN4C[C@H]6C[C@@H]4CO6)CO5)c(Oc4cnc5[nH]ccc5c4)c3)CC2)=C(c2ccc(Cl)cc2)C1` [Example 2-88, 2-((1H-pyrrolo[2,3-b]pyridin-5-yl)oxy)-N-(((S)-3-(((1R,4R)-2-oxa-5-azabicyclo[2.2.1]heptan-5-yl)methyl)-5-nitro-3,4-dihydro-2H-benzo[b][1,4]oxazin-7-yl)sulfonyl)-4-(4-((4′-chloro-5,5-dimethyl-3,4,5,6-tetrahydro-[1,1′-biphenyl]-2-yl)methyl)piperazin-1-yl) benzamide], the IC50 with RS4;11 cells is 2 nM; with DOHH2 cells, 14 nM.

With `CC1(C)CCC(CN2CCN(c3ccc(C(=O)NS(=O)(=O)c4cc5c(c([N+](=O)[O-])c4)N[C@@H](CN4CCCCC4)CO5)c(Oc4cnc5[nH]ccc5c4)c3)CC2)=C(c2ccc(Cl)cc2)C1` [Example 2-89, (S)-2-((1H-pyrrolo[2,3-b]pyridin-5-yl)oxy)-4-(4-((4′-chloro-5,5-dimethyl-3,4,5,6-tetra-hydro-[1,1′-biphenyl]-2-yl)methyl)piperazin-1-yl)-N-((5-nitro-3-(piperidin-1-ylmethyl)-3,4-dihydro-2H-benzo[b][1,4]oxazin-7-yl)sulfonyl)benzamide], the IC50 in the experiment with RS4;11 cells worked out at 50 nM; in the experiment on DOHH2 cells, 55 nM.

On to `CC1(C)CCC(CN2CCN(c3ccc(C(=O)NS(=O)(=O)c4cc5c(c([N+](=O)[O-])c4)N[C@H](CN4CCN(S(C)(=O)=O)CC4)CO5)c(Oc4cnc5[nH]ccc5c4)c3)CC2)=C(c2ccc(Cl)cc2)C1` [Example 2-90, (R)-2-((1H-pyrrolo[2,3-b]pyridin-5-yl)oxy)-4-(4-((4′-chloro-5,5-dimethyl-3,4,5,6-tetra-hydro-[1,1′-biphenyl]-2-yl)methyl)piperazin-1-yl)-N-((3-((4-(methylsulfonyl)piperazin-1-yl)methyl)-5-nitro-3,4-dihdyro-2H-ben-zo[b][1,4]oxazin-7-yl)sulfonyl)benzamide], for which the IC50 in the experiment with RS4;11 cells was 8 nM; with DOHH2 cells it was 22 nM.

Consider `CC(=O)N1CCN(C[C@@H]2COc3cc(S(=O)(=O)NC(=O)c4ccc(N5CCN(CC6=C(c7ccc(Cl)cc7)CC(C)(C)CC6)CC5)cc4Oc4cnc5[nH]ccc5c4)cc([N+](=O)[O-])c3N2)CC1` [Example 2-91, (R)-2-((1H-pyrrolo[2,3-b]pyridin-5-yl)oxy)-N-((3-((4-acetylpiperazin-1-yl)methyl)-5-nitro-3,4-dihydro-2H-benzo[b][1,4]oxazin-7-yl)sulfonyl)-4-(4-((4′-chloro-5,5-dimethyl-3,4,5,6-tetrahydro-[1,1′-biphenyl]-2-yl)meth-yl)piperazin-1-yl)benzamide], for which the IC50 in the experiment on RS4;11 cells was 5 nM; in the experiment on DOHH2 cells it was 49 nM.

On to `CCC(=O)N1CCN(C[C@@H]2COc3cc(S(=O)(=O)NC(=O)c4ccc(N5CCN(CC6=C(c7ccc(Cl)cc7)CC(C)(C)CC6)CC5)cc4Oc4cnc5[nH]ccc5c4)cc([N+](=O)[O-])c3N2)CC1` [Example 2-92, (R)-2-((1H-pyrrolo[2,3-b]pyridin-5-yl)oxy)-4-(4-((4′-chloro-5,5-dimethyl-3,4,5,6-tetra-hydro-[1,1′-biphenyl]-2-yl)methyl)piperazin-1-yl)-N-((5-nitro-3-((4-propionylpiperazin-1-yl)methyl)-3,4-dihydro-2H-benzo[b] [1,4]oxazin-7-yl)sulfonyl)benzamide], for which the IC50 in the experiment with RS4;11 cells came to 5 nM; in the experiment with DOHH2 cells, 79 nM.

For `COC(=O)N1CCN(C[C@@H]2COc3cc(S(=O)(=O)NC(=O)c4ccc(N5CCN(CC6=C(c7ccc(Cl)cc7)CC(C)(C)CC6)CC5)cc4Oc4cnc5[nH]ccc5c4)cc([N+](=O)[O-])c3N2)CC1` [Example 2-93, methyl (R)-4-((7-(N-(2-((1H-pyrrolo[2,3-b]pyridin-5-yl)oxy)-4-(4-((4′-chloro-5,5-dimethyl-3,4,5,6-tetrahydro-[1,1′-biphenyl]-2-yl)methyl)piperazin-1-yl)benzoyl)sulfamoyl)-5-nitro-3,4-dihydro-2H-benzo[b][1,4]oxazin-3-yl)methyl)piperazine-1-carboxylate], the figures for the IC50 with RS4;11 cells and in the experiment with DOHH2 cells were 40 nM and 16 nM, respectively.

As to `CC1(C)CCC(CN2CCN(c3ccc(C(=O)NS(=O)(=O)c4cc5c(c([N+](=O)[O-])c4)N[C@H](CN4CCN(C(=O)C6CC6)CC4)CO5)c(Oc4cnc5[nH]ccc5c4)c3)CC2)=C(c2ccc(Cl)cc2)C1` [Example 2-94, (R)-2-((1H-pyrrolo[2,3-b]pyridin-5-yl)oxy)-4-(4-((4′-chloro-5,5-dimethyl-3,4,5,6-tetra-hydro-[1,1′-biphenyl]-2-yl)methyl)piperazin-1-yl)-N-((3-((4-(cyclopropanecarbonyl)piperazin-1-yl)methyl)-5-nitro-3,4-dihydro-2H-benzo[b][1,4]oxazin-7-yl)sulfonyl)benza-mide], the results for the IC50 in the experiment on RS4;11 cells and in the experiment with DOHH2 cells were 20 nM and 1 nM, respectively.

On to `CC1(C)CCC(CN2CCN(c3ccc(C(=O)NS(=O)(=O)c4cc5c(c([N+](=O)[O-])c4)N[C@@H](CN4CCN(S(C)(=O)=O)CC4)CO5)c(Oc4cnc5[nH]ccc5c4)c3)CC2)=C(c2ccc(Cl)cc2)C1` [Example 2-95, (S)-2-((1H-pyrrolo[2,3-b]pyridin-5-yl)oxy)-4-(4-((4′-chloro-5,5-dimethyl-3,4,5,6-tetra-hydro-[1,1′-biphenyl]-2-yl)methyl)piperazin-1-yl)-N-((3-((4-(methylsulfonyl)piperazin-1-yl)methyl)-5-nitro-3,4-dihydro-2H-ben-zo[b][1,4]oxazin-7-yl)sulfonyl)benzamide], for which the IC50 in the experiment on RS4;11 cells turned out to be 45 nM; in the experiment with DOHH2 cells, 19 nM.
